Results reported in PubChem BioAssay (NCI).
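48-hour exposure; five concentrations; linearly interpolated endpoints. The concentration for full growth arrest is given as TGI.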

Experiments:
Test in all cases: inhibition of tumour cell growth, NCI panel, 48 h
HT29 colon = tested on: HT29 colon
SK-MEL-5 melanoma = tested on: SK-MEL-5 melanoma
LOX IMVI melanoma = tested on: LOX IMVI melanoma
SF-539 CNS = tested on: SF-539 CNS
MDA-N = tested on: MDA-N
NCI/ADR-RES ovarian = tested on: NCI/ADR-RES ovarian
OVCAR-8 ovarian = tested on: OVCAR-8 ovarian
UACC-62 melanoma = tested on: UACC-62 melanoma
CCRF-CEM leukemia = tested on: CCRF-CEM leukemia
U251 CNS = tested on: U251 CNS
HS 578T breast = tested on: HS 578T breast
SF-268 CNS = tested on: SF-268 CNS
HCC-2998 colon = tested on: HCC-2998 colon
SF-295 CNS = tested on: SF-295 CNS
MOLT-4 leukemia = tested on: MOLT-4 leukemia
EKVX NSCLC = tested on: EKVX NSCLC
PC-3 prostate = tested on: PC-3 prostate
IGROV1 ovarian = tested on: IGROV1 ovarian
HL-60(TB) leukemia = tested on: HL-60(TB) leukemia
HOP-92 NSCLC = tested on: HOP-92 NSCLC
OVCAR-4 ovarian = tested on: OVCAR-4 ovarian
CAKI-1 renal = tested on: CAKI-1 renal
BT-549 breast = tested on: BT-549 breast
COLO 205 colon = tested on: COLO 205 colon
OVCAR-3 ovarian = tested on: OVCAR-3 ovarian
KM12 colon = tested on: KM12 colon
SNB-19 CNS = tested on: SNB-19 CNS
SN12C renal = tested on: SN12C renal
NCI-H23 lung = tested on: NCI-H23 lung
SK-OV-3 ovarian = tested on: SK-OV-3 ovarian
NCI-H226 lung = tested on: NCI-H226 lung
MALME-3M melanoma = tested on: MALME-3M melanoma
DU-145 prostate = tested on: DU-145 prostate
T-47D breast = tested on: T-47D breast
786-0 renal = tested on: 786-0 renal
SNB-75 CNS = tested on: SNB-75 CNS
MDA-MB-435 = tested on: MDA-MB-435
HOP-62 NSCLC = tested on: HOP-62 NSCLC
A549 NSCLC = tested on: A549 NSCLC
MDA-MB-231 breast = tested on: MDA-MB-231 breast
K-562 leukemia = tested on: K-562 leukemia
NCI-H522 lung = tested on: NCI-H522 lung
UO-31 renal = tested on: UO-31 renal
UACC-257 melanoma = tested on: UACC-257 melanoma
MCF7 breast = tested on: MCF7 breast
TK-10 renal = tested on: TK-10 renal
M14 melanoma = tested on: M14 melanoma
SK-MEL-2 melanoma = tested on: SK-MEL-2 melanoma
OVCAR-5 ovarian = tested on: OVCAR-5 ovarian
SR leukemia = tested on: SR leukemia
HCT-116 colon = tested on: HCT-116 colon
HCT-15 colon = tested on: HCT-15 colon
A498 renal = tested on: A498 renal
SW-620 colon = tested on: SW-620 colon
ACHN renal = tested on: ACHN renal
NCI-H460 lung = tested on: NCI-H460 lung
RPMI-8226 leukemia = tested on: RPMI-8226 leukemia
SK-MEL-28 melanoma = tested on: SK-MEL-28 melanoma
RXF 393 renal = tested on: RXF 393 renal

## C[N+](C)(CCNc1ccc(NCC[N+](C)(C)Cc2ccc([N+](=O)[O-])cc2)c2c1C(=O)c1ccccc1C2=O)Cc1ccc([N+](=O)[O-])cc1
HT29 colon
  TGI: > 100 µM
SK-MEL-5 melanoma
  TGI: > 100 µM
LOX IMVI melanoma
  TGI: > 100 µM
SF-539 CNS
  TGI: > 100 µM
MDA-N
  TGI: > 100 µM
NCI/ADR-RES ovarian
  TGI: > 100 µM
OVCAR-8 ovarian
  TGI: > 100 µM
UACC-62 melanoma
  TGI: > 100 µM
CCRF-CEM leukemia
  TGI: > 100 µM
U251 CNS
  TGI: > 100 µM
HS 578T breast
  TGI: > 100 µM
SF-268 CNS
  TGI: > 100 µM
HCC-2998 colon
  TGI: > 100 µM
SF-295 CNS
  TGI: > 100 µM
MOLT-4 leukemia
  TGI: > 100 µM
EKVX NSCLC
  TGI: > 100 µM
PC-3 prostate
  TGI: > 100 µM
IGROV1 ovarian
  TGI: > 100 µM
HL-60(TB) leukemia
  TGI: > 100 µM
HOP-92 NSCLC
  TGI: > 100 µM
OVCAR-4 ovarian
  TGI: > 100 µM
CAKI-1 renal
  TGI: > 100 µM
BT-549 breast
  TGI: > 100 µM
COLO 205 colon
  TGI: > 100 µM
OVCAR-3 ovarian
  TGI: > 100 µM
KM12 colon
  TGI: > 100 µM
SNB-19 CNS
  TGI: > 100 µM
SN12C renal
  TGI: > 100 µM
NCI-H23 lung
  TGI: > 100 µM
SK-OV-3 ovarian
  TGI: > 100 µM
NCI-H226 lung
  TGI: > 100 µM
MALME-3M melanoma
  TGI: > 100 µM
DU-145 prostate
  TGI: > 100 µM
T-47D breast
  TGI: > 100 µM
786-0 renal
  TGI: > 100 µM
SNB-75 CNS
  TGI: > 100 µM
MDA-MB-435
  TGI: > 100 µM
HOP-62 NSCLC
  TGI: > 100 µM
A549 NSCLC
  TGI: > 100 µM
MDA-MB-231 breast
  TGI: > 100 µM
K-562 leukemia
  TGI: > 100 µM
NCI-H522 lung
  TGI: > 100 µM
UO-31 renal
  TGI: > 100 µM
UACC-257 melanoma
  TGI: > 100 µM
MCF7 breast
  TGI: > 100 µM
TK-10 renal
  TGI: > 100 µM
M14 melanoma
  TGI: > 100 µM
SK-MEL-2 melanoma
  TGI: > 100 µM
OVCAR-5 ovarian
  TGI: > 100 µM
SR leukemia
  TGI: > 100 µM
HCT-116 colon
  TGI: > 100 µM
HCT-15 colon
  TGI: > 100 µM
A498 renal
  TGI: > 100 µM
SW-620 colon
  TGI: > 100 µM
ACHN renal
  TGI: > 100 µM
NCI-H460 lung
  TGI: > 100 µM

## COc1cc(-c2nc3ccc(N4CCN(C)CC4)cc3[nH]2)c(OC)c2[nH]c(CO)nc12
HT29 colon
  TGI: > 100 µM
SK-MEL-5 melanoma
  TGI: > 100 µM
LOX IMVI melanoma
  TGI: > 100 µM
SF-539 CNS
  TGI: > 100 µM
MDA-N
  TGI: > 100 µM
RPMI-8226 leukemia
  TGI: > 100 µM
NCI/ADR-RES ovarian
  TGI: > 100 µM
OVCAR-8 ovarian
  TGI: > 100 µM
UACC-62 melanoma
  TGI: > 100 µM
CCRF-CEM leukemia
  TGI: 44.5 µM
U251 CNS
  TGI: > 100 µM
HS 578T breast
  TGI: > 100 µM
SF-268 CNS
  TGI: > 100 µM
SF-295 CNS
  TGI: > 100 µM
MOLT-4 leukemia
  TGI: > 100 µM
EKVX NSCLC
  TGI: > 100 µM
PC-3 prostate
  TGI: > 100 µM
IGROV1 ovarian
  TGI: > 100 µM
HL-60(TB) leukemia
  TGI: 37.2 µM
SK-MEL-28 melanoma
  TGI: > 100 µM
HOP-92 NSCLC
  TGI: > 100 µM
RXF 393 renal
  TGI: > 100 µM
OVCAR-4 ovarian
  TGI: > 100 µM
CAKI-1 renal
  TGI: > 100 µM
BT-549 breast
  TGI: > 100 µM
COLO 205 colon
  TGI: > 100 µM
OVCAR-3 ovarian
  TGI: > 100 µM
KM12 colon
  TGI: > 100 µM
SNB-19 CNS
  TGI: > 100 µM
SN12C renal
  TGI: > 100 µM
NCI-H23 lung
  TGI: > 100 µM
SK-OV-3 ovarian
  TGI: > 100 µM
NCI-H226 lung
  TGI: > 100 µM
MALME-3M melanoma
  TGI: > 100 µM
DU-145 prostate
  TGI: > 100 µM
T-47D breast
  TGI: > 100 µM
786-0 renal
  TGI: > 100 µM
SNB-75 CNS
  TGI: > 100 µM
MDA-MB-435
  TGI: > 100 µM
HOP-62 NSCLC
  TGI: > 100 µM
A549 NSCLC
  TGI: > 100 µM
MDA-MB-231 breast
  TGI: > 100 µM
K-562 leukemia
  TGI: > 100 µM
NCI-H522 lung
  TGI: > 100 µM
UO-31 renal
  TGI: > 100 µM
UACC-257 melanoma
  TGI: > 100 µM
MCF7 breast
  TGI: > 100 µM
TK-10 renal
  TGI: > 100 µM
M14 melanoma
  TGI: > 100 µM
SK-MEL-2 melanoma
  TGI: > 100 µM
OVCAR-5 ovarian
  TGI: > 100 µM
SR leukemia
  TGI: > 100 µM
HCT-116 colon
  TGI: > 100 µM
HCT-15 colon
  TGI: > 100 µM
A498 renal
  TGI: > 100 µM
SW-620 colon
  TGI: > 100 µM
ACHN renal
  TGI: > 100 µM
NCI-H460 lung
  TGI: > 100 µM

## CC(CCOc1ccc2ccc(=O)oc2c1)C1=CC(=O)C(C)(C)O1 (stereo not given)
HT29 colon
  TGI: 10.4 µM
SK-MEL-5 melanoma
  TGI: 24 µM
LOX IMVI melanoma
  TGI: > 100 µM
SF-539 CNS
  TGI: 4.37 µM
MDA-N
  TGI: 16.4 µM
RPMI-8226 leukemia
  TGI: 7.31 µM
NCI/ADR-RES ovarian
  TGI: 5.62 µM
OVCAR-8 ovarian
  TGI: 4.45 µM
UACC-62 melanoma
  TGI: 14.9 µM
CCRF-CEM leukemia
  TGI: 3.18 µM
U251 CNS
  TGI: 10.3 µM
HS 578T breast
  TGI: 6.84 µM
SF-268 CNS
  TGI: 5.28 µM
HCC-2998 colon
  TGI: 5.71 µM
SF-295 CNS
  TGI: 14.3 µM
MOLT-4 leukemia
  TGI: 6.37 µM
EKVX NSCLC
  TGI: 15.1 µM
PC-3 prostate
  TGI: 23.5 µM
IGROV1 ovarian
  TGI: 14.8 µM
HL-60(TB) leukemia
  TGI: 5.31 µM
SK-MEL-28 melanoma
  TGI: 12.2 µM
HOP-92 NSCLC
  TGI: 13.2 µM
OVCAR-4 ovarian
  TGI: 22.5 µM
CAKI-1 renal
  TGI: 8.75 µM
BT-549 breast
  TGI: 11 µM
COLO 205 colon
  TGI: 5.97 µM
OVCAR-3 ovarian
  TGI: 11.6 µM
KM12 colon
  TGI: 7.41 µM
SNB-19 CNS
  TGI: 18.2 µM
SN12C renal
  TGI: 4.09 µM
NCI-H23 lung
  TGI: 11.9 µM
SK-OV-3 ovarian
  TGI: 14.2 µM
NCI-H226 lung
  TGI: 22.5 µM
MALME-3M melanoma
  TGI: 10.8 µM
DU-145 prostate
  TGI: 12.5 µM
T-47D breast
  TGI: 6.06 µM
786-0 renal
  TGI: 7.69 µM
MDA-MB-435
  TGI: 11.5 µM
HOP-62 NSCLC
  TGI: 21.3 µM
A549 NSCLC
  TGI: 10.6 µM
MDA-MB-231 breast
  TGI: 12.5 µM
NCI-H522 lung
  TGI: 3.11 µM
UO-31 renal
  TGI: 12.1 µM
UACC-257 melanoma
  TGI: 20.6 µM
MCF7 breast
  TGI: 14.7 µM
TK-10 renal
  TGI: 13.3 µM
M14 melanoma
  TGI: 26.5 µM
SK-MEL-2 melanoma
  TGI: 26.3 µM
OVCAR-5 ovarian
  TGI: 49.9 µM
SR leukemia
  TGI: 3.42 µM
HCT-116 colon
  TGI: 10 µM
HCT-15 colon
  TGI: 5.68 µM
A498 renal
  TGI: 5.52 µM
SW-620 colon
  TGI: 4.93 µM
ACHN renal
  TGI: 12.4 µM
NCI-H460 lung
  TGI: 3.94 µM
